Measured values from PMC3848067 (Acta Naturae, 2013).
Like-named read-outs stand apart in the source and are kept apart here.

Columns and labels:
Salmonella typhimurium = conditions: concentrations of up to 1 mg/dish; cited from earlier work
mice [1] = conditions: cited from earlier work
mice [2] = conditions: cited from earlier work; remark: listed apart in the source
[3] = rabbits; cited from earlier work
rats [4] = conditions: Wistar rats, intragastric 133 mg/kg daily, 10 weeks males and 2 weeks females; cited from earlier work
[5] = single oral dose of phosphonate 2, 200 mg/kg; cited from earlier work
[6] = dogs, 50 mg (2–5 mg/kg), cited from earlier work
[7] = extrapolated for single-dose oral administration of 600 mg of phosphonate 2
mouse embryonic cells = conditions: doses 50-fold higher than maximum recommended therapeutic dose for humans; cited from earlier work
guinea pigs [8] = conditions: doses and sensibilization schemes tested; cited from earlier work
pregnant female rats = conditions: intragastric 133 mg/kg daily on days 1–19 of gestation; cited from earlier work
rats [9] = conditions: cited from earlier work
MT-4 cells = conditions: MT-4 cell line; cited from earlier work
HIV-1 = conditions: cited from earlier work
cultured cells = conditions: cited from earlier work
[10] = pharmacokinetics after single-dose oral administration to dogs; conditions: comparison from Table 2
[11] = cited from earlier work
guinea pigs [12] = conditions: sensibilizing doses 133 and 266 mg/kg, provoking dose 266 mg/kg on days 14 and 21; cited from earlier work
[13] = rabbits, single oral dose of 7, 70 and 200 mg/kg; cited from earlier work
[14] = rabbits, oral course, 1 g in 4–5 ml of water, after 6 and 18 h during 5 days; cited from earlier work
mice [15] = conditions: cited from earlier work; remark: listed apart in the source
[16] = test system: bone marrow cells of hybrid mice F1(CBAxC57Bl6); conditions: doses 50-fold higher than maximum recommended therapeutic dose for humans; cited from earlier work
[17] = canine whole blood at 37°С; cited from earlier work
[18] = dogs, cited from earlier work; for AUC / Cmax / Cmax/AUC / MRT / t1/2 / tmax: value for the tested compound (2 or its metabolite AZT)
[19] = rats, intraperitoneal, 20 mg/kg; parameters of phosphonate 2; cited from earlier work
dogs = conditions: intragastric, 166 mg/kg daily for 4 weeks; cited from earlier work
[20] = rats, oral, 20 mg/kg; cited from earlier work
rats [21] = conditions: intragastric, 133 and 266 mg/kg daily for 3 months; cited from earlier work
[22] = single oral dose of capsules of 2, 10 mg/kg
[23] = single oral dose of capsules of 2, 20 mg/kg
[24] = single oral dose of capsules of 2, 40 mg/kg

Cc1cn([C@H]2C[C@H](N=[N+]=[N-])[C@@H](COP(=O)(O)C(N)=O)O2)c(=O)[nH]c1=O [Compound 2, AZT 5’-aminocarbonyl phosphonate]
number of revertants in the Ames test (Salmonella typhimurium): does not increase the number of revertants | primary immune response (mice [1]; F1(CBAxC57BI6) mice, 332 mg/kg): reduced the primary immune response to a certain extent | hypersensitivity of the decelerated type reaction (mice [1]; mice, 166 and 332 mg/kg): nor the hypersensitivity of the decelerated type reaction | number of nuclear cells in spleen (mice [1]; mice, 166 and 332 mg/kg): affects neither the number of nuclear cells in spleen | popliteal lymph node reaction (mice [2]): not to affect the popliteal lymph node reaction | AZT in peripheral blood after intravenous administration [3]: AZT has not been detected | effect on animal reproduction function (rats [4]): no effects | original substance in daily urine and feces [5]: could not be detected | AZT in blood plasma after intravenous administration [6]: No AZT has been detected | AUC t ([6]; intravenous, parameters of 2): 2190 ng·h/mL | CL ([6]; intravenous, parameters of 2): 16.8 L/h | MRT ([6]; intravenous, parameters of 2): 0.74 h | Vss ([6]; intravenous, parameters of 2): 12.4 L | t1/2 ([6]; intravenous, parameters of 2): 0.35 h | expected AZT concentration in human blood plasma [7]: 100 to 115 ng/mL | dominant lethal mutations in mouse embryonic cells (mouse embryonic cells): nor affected the number of dominant lethal mutations | allergic effect in type III hypersensitivity reaction (guinea pigs [8]): no allergic effect | embryotoxic and teratogenic effects (pregnant female rats): neither embryotoxic nor teratogenic effects | signs after single-dose administration at toxic doses (rats [9]; rats, 2000–50000 mg/kg): short-term agitation in animals replaced by distress, inertness and adynamia | LD50 (rats [9]; single-dose intragastric administration to rats): higher than 40 g/kg | toxicity, times lower than that of AZT (MT-4 cells): 34–50 times | toxicity, times lower than that of phosphazide (MT-4 cells): 12.5–15 times | antiviral activity (inhibition of viral replication) relative to AZT (HIV-1; HIV-infected MT-4 cells): inferior to that of AZT by about an order of magnitude | antiviral activity, times lower than that of phosphazide (HIV-1; MT-4 cell line): 3–4.5 times | selectivity index compared to AZT and phosphazide (HIV-1; MT-4 cell line): higher | efficiency of penetration into cells, times lower than that of AZT (cultured cells): 10–100 times | efficiency of penetration into cells, times lower than that of phosphazide (cultured cells): approximately 6 times | Cmax of AZT, times lower than for phosphazide [10]: 2.5 times | half-life in 100% human blood serum [11]: over 6 h | anaphylactic shock (guinea pigs [12]): no anaphylactic shock | presence of AZT in blood [13]: AZT is present in the blood in all the cases | accumulation in blood [14]: gradual accumulation | mean lethal dose (LD50) (mice [15]; intraperitoneal administration to mice): ≥ 5000 mg/kg | signs after single-dose administration at toxic doses (mice [15]; mice, 2000–50000 mg/kg): short-term agitation in animals replaced by distress, inertness and adynamia | chromosomal aberrations in mouse bone marrow cells [16]: neither caused an increase in the number of chromosomal aberrations | Т1/2 in canine whole blood [17]: > 24 h | bioavailability of 5’-aminocarbonyl phosphonate 2 ([18]; administered orally at specified doses): 4.7% | bioavailability of AZT after 2 had been administered orally ([18]; oral): 8% | AUC [18, 22]: 470 ± 150 ng·h/mL | Cmax [18, 22]: 310 ± 90 ng/mL | Cmax/AUC [18, 22]: 0.662 ± 0.066 h⁻¹ | MRT [18, 22]: 2.43 ± 0.04 h | t1/2 [18, 22]: 0.62 ± 0.1 h | tmax [18, 22]: 1.5 ± 0.25 h | AUC [18, 23]: 980 ± 440 ng·h/mL | Cmax [18, 23]: 510 ± 180 ng/mL | Cmax/AUC [18, 23]: 0.561 ± 0.122 h⁻¹ | MRT [18, 23]: 2.65 ± 0.16 h | t1/2 [18, 23]: 0.81 ± 0.2 h | tmax [18, 23]: 1.6 ± 0.2 h | AUC [18, 24]: 1250 ± 860 ng·h/mL | Cmax [18, 24]: 510 ± 260 ng/mL | Cmax/AUC [18, 24]: 0.478 ± 0.117 h⁻¹ | MRT [18, 24]: 2.87 ± 0.49 h | t1/2 [18, 24]: 0.59 ± 0.2 h | tmax [18, 24]: 1.75 ± 0.27 h | tmax of AZT ([18]; single oral dose of the named compound equivalent to 20 mg of AZT/kg): 4 h | AUC0–t [19]: 8020 ng·h/mL | MRT [19]: 0.82 h | Vss [19]: 0.37 L | t1/2 [19]: 0.42 h | СL [19]: 0.45 L/h | tolerability, capsules (dogs): well-tolerated by the animals | original phosphonate 2 in blood plasma [20]: No original phosphonate 2 was detected | tolerability, chronic administration (rats [21]): well-tolerated by animals
